The test system of assay [1] is Mycobacterium tuberculosis H37Rv (ATCC 27294). Description: Mycobacterium tuberculosis assay (Microplate Alamar Blue Assay, MIC). It is filed as cell-based. The conditions noted are these: pure compounds and controls, read-out: MTB H37Rv (MIC μM).
For assay [2], the system named is T. brucei rhodesiense (STIB-900). Description: Anti-trypanosomal assay (Alamar Blue, 72 h). It is filed as cell-based, Trypanosoma brucei rhodesiense. The conditions noted are these: Trypanosoma brucei, RHODESIENSE, 72 h, pure compounds and control; 72 h; read-out: T. br (IC50 μM). The method, then: T. brucei rhodesiense (STIB-900) was maintained in Minimal Essential Medium (MEM) with Earle’s salts supplemented with 3 g/L sodium bicarbonate, 4.5 g/L glucose, 25 mM HEPES, pH 7.3, 0.05 mM bathocuproinedisulfonic acid disodium salt, 1.5 mM L-cysteine, 1 mM hypoxanthine, 0.16 mM thymidine, 1 mM sodium pyruvate, 0.2 mM 2-mercaptoethanol, 1% MEM non-essential amino acid, and 15% heated fetal bovine serum, at 37 °C in a 5% CO2 incubator. To assay anti-Tbr activity, a modified reported protocol was used. Briefly, 2 × 10^4 T. brucei rhodesiense parasites in 175 μL culture media were incubated with 25 μL of varying concentrations of each compound in a 96-well plate under the same culture conditions. Following 72 h incubation, 20 μL Alamar Blue (a resazurin solution) was added in each well. The mixture was further incubated for 3 h. The fluorescence signals were measured by a spectrofluorometer at ex530/em585 nm.

In assay [3] the test system is Plasmodium falciparum TM4/8.2. Description: Antimalaria assay, [3H] hypoxanthine incorporation, TM4/8.2 strain. The following applies: read-out: P. f (IC50 μM) TM4/8.2. It is filed as cell-based. On the procedure:
(§1) Plasmodium falciparum TM4/8.2 and K1CB1 strains were maintained in RPMI 1640 medium supplemented with 8% human serum, 2.5 mM HEPES and 2 g/L sodium bicarbonate. Parasite cultures were incubated at 37 °C in a 3% CO2 incubator. The crude extracts/pure compounds were tested against TM4/8.2 and K1CB1 P. falciparum in vitro by the modified [^3H] hypoxanthine incorporation assay. Briefly, stock solutions of the crude extracts or pure compounds were prepared in DMSO. Various concentrations of the samples were incubated with malaria parasites with a final volume of 225 μL, 1% parasitemia, 1.5% hematocrit, 0.1% dimethylsulfoxide (DMSO) in 96-well plates. Plates were incubated for 16–18 h. Then, 25 μL [^3H]-hypoxanthine solution was added and incubated for 20 h. The parasites were harvested onto a UniFilter-96 GF/B plate (PerkinElmer, USA). The filters in the plates were air-dried, and then 25 μL of liquid scintillation fluid (Microscint, Packard) was added. The radioactivity was then measured using a microplate scintillation counter (TopCount, Packard). The IC50 values of the crude extracts/ pure compounds were determined.

The test system of assay [4] is Plasmodium falciparum K1CB1. Description: Antimalaria assay, [3H] hypoxanthine incorporation, K1CB1 strain. The assay is classed as cell-based. The conditions noted are these: Plasmodium falciparum; pure compounds and controls; strain K1CB1; read-out: P. f (IC50 μM) K1CB1. On the procedure:
as §1

In assay [5] the target is T1, α-glucosidase (AG) (Saccharomyces cerevisiae, UniProt P53341).
T1 construct: purchased Sigma
T1 sequence (P53341 whole entry): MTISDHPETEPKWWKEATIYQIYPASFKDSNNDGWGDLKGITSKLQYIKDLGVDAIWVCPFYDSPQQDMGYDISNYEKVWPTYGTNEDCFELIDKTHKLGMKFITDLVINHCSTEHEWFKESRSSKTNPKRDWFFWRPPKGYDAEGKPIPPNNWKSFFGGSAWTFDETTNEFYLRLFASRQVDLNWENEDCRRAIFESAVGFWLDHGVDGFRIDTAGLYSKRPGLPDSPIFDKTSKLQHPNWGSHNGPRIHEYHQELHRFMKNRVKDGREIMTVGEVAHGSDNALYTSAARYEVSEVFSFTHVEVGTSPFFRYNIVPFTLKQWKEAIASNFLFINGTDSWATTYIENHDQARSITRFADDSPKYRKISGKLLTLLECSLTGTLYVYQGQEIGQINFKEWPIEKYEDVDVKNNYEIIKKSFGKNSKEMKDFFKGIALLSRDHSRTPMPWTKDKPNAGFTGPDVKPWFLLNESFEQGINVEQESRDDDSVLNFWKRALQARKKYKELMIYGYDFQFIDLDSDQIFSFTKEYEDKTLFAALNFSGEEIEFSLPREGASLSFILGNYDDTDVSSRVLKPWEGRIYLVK
Description: biochemical. On the set-up: species or system S. cerevisiae. The method, then: AGI values of extracts and pure phytochemicals were quantitatively determined in a 96-well plastic plate according to the method described by Nguyen et al.. The enzyme was incubated with the samples dissolved in DMSO for 5 min before adding the substrate. The inhibition was measured spectrophotometrically in 20 mM sodium phosphate buffer pH 6.0 at 37 °C using 3.0 mM p-nitrophenyl α-D-glucopyranoside (Sigma) as the substrate and 0.25 units/mL of AG from S. cerevisiae (Sigma). The absorbance at 405 nm was measured using a microplate reader (BioTek ELx808 microplate reader, USA).

The target of assay [6] is α-amylase (AA). Description: α-amylase inhibitory activity (AAI), starch-iodine assay. It is filed as biochemical. The conditions noted are these: in 50% DMSO. On the procedure:
AAI values were determined using a microplate-based starch–iodine assay. Assay reactions were initiated by adding 40 μL of starch (Sigma S-2630) solution (2.0 g/L) and 40 μL of enzyme in 0.1 M phosphate buffer at pH 7.0 to microplate wells. The enzyme was incubated with the samples for 5 min before adding the substrate. To minimize evaporative loss during incubation, a plastic mat was used to cover the microplate. […] Following color development, the absorbance at 580 nm was measured using a microplate reader (Bio-TEK ELx808 microplate reader, USA).

Broadly, the MIC is the least concentration at which growth counts as inhibited. A word on the inhibition: it is how much of the control response was suppressed. On to `Oc1cc(O)c2c(c1)O[C@H](c1ccc(O)c(O)c1)[C@@H](O)C2` [Compound 3, (+)-catechin], for which the MIC in assay [1] is more than 20 µM. Further, the IC50 in assay [2] was more than 100 µM; in assay [3], more than 100 µM; in assay [4], more than 100 µM; in assay [5] (in 50% DMSO), 360 µM; in assay [6], 2260 µM. Further, in assay [5] (samples 250 μg/mL in 50% DMSO, read-out: % Inhibition (AGI activity)), the inhibition at 250 µg/mL stood at 97.5 ± 0.6%.

These data come from PMC8438977, “Isolation of bioactive compounds from medicinal plants used in traditional medicine: Rautandiol B, a potential lead compound against Plasmodium falciparum” (BMC Complementary Medicine and Therapies, 2021).
